Earlier results, collected in patent US20200306292A1, “METHOD FOR TREATING ACUTE HYPOVOLEMIA” (Wonder Spray, LLC, priority 2019, published 2020).

Key:
[1] = system: E. coli; conditions: (2.6 ppm) HOCl, within 5 minutes
[2] = system: E. coli; conditions: 50 mM (2.6 ppm) HOCl, within 5 minutes
[3] = system: f2 RNA; conditions: naked f2 RNA compared with RNA in intact phage
[4] = inhalation

SMILES: OCl [HOCl, hypochlorous acid]
- growth of E. coli [1]: completely inhibited
- inhibiting the DNA synthesis [2]: ninety-six
- inactivation of naked f2 RNA [3]: inactivated naked f2 RNA at the same rate as RNA in intact phage
- adverse effects on inhaling the aerosolized form [4]: no adverse effects
